From patent US6270780A, “Cosmetic compositions containing resveratrol” (Chesebrough-Pond's USA Co., division of Conopco, priority 1998, dated 2001)
Where two headings read alike, the source gives them in different places.

Key:
B16 F1 cells = assay: Melanin production by B16 cells; type: cell-based
Experimental: B16 F1 cells were purchased from ATCC (Rockville, Md.) Subconfluent B16 cells were seeded in 96 well microtiter plates at a density of 5000 cells/well and cultured overnight in DMEM (Life Technologies, NY) containing 10% Fetal Bovine Serum, 1% penicillin/streptomycin without phenol red) at 37° C. under 5% CO2. After 24 hours, the media was replaced with fresh media containing the treatments. Cells were incubated for 72 hours at which time melanin was visible in the control treatment. Next, the melanin containing media from each well was transferred to a clean 96 well plate and quantified by reading the absorbance at 530 nm using a microplate Spectrophotometer.
(§1) For each treatment, the average of four replicate readings was calculated and expressed as percent of the average for the untreated control.
The lower the % melanin value (with a viability value of >50%), the better the skin lightening potential.

[1] = test system: Normal human keratinocytes; assay: 3H-thymidine incorporation (DNA synthesis) / proliferation of keratinocytes; type: cell-based
Source text: The incorporation of ^3 H-thymidine by cultured cells was used as an assay of cell proliferation (both for ZR75 cells and for keratinocytes). Thymidine is one of four deoxynucleosides which are the monomeric units of DNA. Prior to cell division of a somatic cell, the complete genome of the cell undergoing cell division is replicated. This involves large scale DNA synthesis by the cell and enables both daughter cells to receive identical copies of the genetic material. When ^3 H-thymidine is included in the culture media of cells which are synthesizing DNA in preparation for cell division then the labeled thymidine is incorporated into the newly synthesized DNA. The extent of incorporation of ^3 H-thymidine into a population of cells is proportional to the rate of DNA synthesis by this population of cells and therefore an indication of their cellular proliferation.
1. Normal human keratinocytes isolated from neonatal foreskins by trypsin treatment were grown in Dulbecco's modified Eagle's medium (DME)/5% fetal calf serum in the presence of mitomycin C treated 3T3 mouse fibroblasts for establishing dividing keratinocyte colonies. Keratinocytes were grown under the above condition until their third passage.
2. For the experiments, third passage keratinocytes were plated into a serum-free keratinocyte growth medium (KGM; obtained from Clonetics, San Diego, Calif.) containing 0.09 mM calcium. About 30,000 cells were plated into each well of 6 well cell culture plates and grown for 5 days, until the cells reach about 40% confluence.
3. Medium was changed to fresh medium (KBM; obtained from Clonetics) and resveratrol at various concentrations as indicated in Table 2 was added to the medium from a DMSO (Dimethylsulfoxide) stock solution. The final DMSO concentration in the cultures was 0.1%. Control cultures received no resveratrol but were dosed with 0.1% DMSO. Each concentration was tested in three separate wells. After four hours, 1 μCi of ^3 H-thymidine (Amersham Corp., Sp activity 40 Ci/mmol) was added to 1 ml of medium in each well. The cells were incubated for 2 hours. The amount of ^3 H-thymidine associated with the cellular DNA of keratinocytes was assessed as described below.
4. The medium was aspirated, and the wells washed with 1 ml PBS. The DNA and proteins of the cells in the plate were then precipitated by adding 1 ml of ice-cold 10% TCA. The plates were left on ice for 30 minutes to complete the precipitation process. TCA was then aspirated and each well was then washed 4 times with 5% TCA. The cells in the wells were dissolved in 0.5 ml of […] sodium hydroxide. 200 μl was then transferred to a scintillation vial for assessing thymidine incorporation and 25 μl was used for a protein assay using BCA protein assay reagent as described below. 5 ml of a scintillation fluid (Scintiverse) was added to the rest of the solution in the vial, and the vials were counted in a scintillation counter to determine the amount of radioactivity in each vial.
BCA (Bicinchoninic Acid)--Protein Assay
25 μl of cell suspension were placed in a 96 well plate. Standards of BSA (bovine serum albumin) in 0.1N Sodium Hydroxide were also pipetted in triplicate in the same 96 well plate. Pierce BCA protein assay reagent was added (200 μl/well) and plate was incubated for 2 hours at room temperature. Absorbance was read at a wavelength of 570 nm on a Dynatech MR7000 plate reader.
The DNA synthesis rate was then calculated as cpm ^3 H-thymidine incorporated into total cellular DNA/μg of cell protein for each individual well. Mean and standard deviation for each group were also calculated. These numbers were also expressed as percent of control wells. Each data point is expressed as mean of triplicate wells±standard deviation.
The results that were obtained are summarized in Table 2. p values of less than […] were considered to indicate statistical significance.
Example 2 was repeated at various additional concentrations of resveratrol.

[2] = Cell viability of B16 cells by neutral red dye uptake; type: cell-based; settings: mouse, b16 f1 cells
Experimental: In order to ensure that melanin inhibition was not simply due to cell killing, cell viability was assessed by neutral red dye uptake. After the removal of media, 200 μL of pre-warmed medium containing 25 μg/ml neutral red dye was added to each well and incubated for 3 hours. Cells were washed 2× with PBS. The dye was extracted by adding […] of 50 H2O: 49 ethanol: 1 acetic acid and then gently shaken at room temperature for 20 minutes. The dye was quantified by reading the absorbance at 530 nm. Only viable cells are expected to take up the dye and the absorbance is directly proportional to the number of viable cells surviving the treatment.
as §1

cyclo-oxygenase = settings: known; cited from earlier work

## Oc1ccc(/C=C/c2cc(O)cc(O)c2)cc1 [Resveratrol, 3,4'5-stilbenetriol]
B16 F1 cells; Mus musculus, B16-F1, 10 μM, 72 hours
  activity at 10 µM: 80%
B16 F1 cells; Mus musculus, B16-F1, 25 μM, 72 hours
  activity at 25 µM: 4%
B16 F1 cells; Mus musculus, B16-F1, 50 μM, 72 hours
  activity at 50 µM: 3.9%
B16 F1 cells; Mus musculus, B16-F1, 100 μM, 72 hours
  activity at 100 µM: 6.6%
B16 F1 cells; all concentrations tested where viability was greater than 50%
  melanin production by skin cells: inhibited melanin production by skin cells
[1]; Homo sapiens, Keratinocyte, Table 2 Experiment 1, 50 μM
  inhibition at 50 µM: 98%
[1]; Homo sapiens, Keratinocyte, Table 2 Experiment 2, 0.78 μM
  inhibition at 0.78 µM: 33%
[1]; Homo sapiens, Keratinocyte, Table 2 Experiment 2, 1.56 μM, read-out: % inhibition (DNA synthesis)
  inhibition at 1.56 µM: 48%
[1]; Homo sapiens, Keratinocyte, Table 2 Experiment 2, 3.12 μM
  inhibition at 3.12 µM: 70%
[1]; Homo sapiens, Keratinocyte, Table 2 Experiment 2, 6.25 μM
  inhibition at 6.25 µM: 86%
[1]; Homo sapiens, Keratinocyte, Table 2 Experiment 2, 12.5 μM
  inhibition at 12.5 µM: 94%
[1]; Homo sapiens, Keratinocyte, Table 2 Experiment 2, 25 μM
  inhibition at 25 µM: 97%
[1]; Homo sapiens, Keratinocyte, Table 2 Experiment 2, 50 μM
  inhibition at 50 µM: 97%
[1]; Homo sapiens, Keratinocyte, Table 3, 0.1 μM
  inhibition at 0.1 µM: 5%
[1]; Homo sapiens, Keratinocyte, Table 3, 0.2 μM
  inhibition at 0.2 µM: 12%
[1]; Homo sapiens, Keratinocyte, Table 3, 0.3 μM
  inhibition at 0.3 µM: 7%
[1]; Homo sapiens, Keratinocyte, Table 3, 0.4 μM
  inhibition at 0.4 µM: 14%
[1]; Homo sapiens, Keratinocyte, Table 3, 0.6 μM
  inhibition at 0.6 µM: 6%
[1]; Homo sapiens, Keratinocyte, Table 3, 0.8 μM
  inhibition at 0.8 µM: 30%
[1]; Homo sapiens, Keratinocyte, Table 3, 1.0 μM
  inhibition at 1 µM: 40%
[1]; Homo sapiens, Keratinocyte, Table 3, 2.0 μM
  inhibition at 2 µM: 59%
[1]; Homo sapiens, Keratinocyte, 1.56 μM, read-out: reduced keratinocyte proliferation
  inhibition at 1.56 µM: ~50%
[1]; Table 2 Experiment 1, 50 μM
  DNA synthesis (cpm/μg protein): 0.62 ± 0.09 cpm/μg protein
[1]; Table 2 Experiment 2, 0.78 μM
  DNA synthesis (cpm/μg protein): 11.57 ± 1.7 cpm/μg protein
[1]; Table 2 Experiment 2, 1.56 μM
  DNA synthesis (cpm/μg protein): 8.89 ± 1.12 cpm/μg protein
[1]; Table 2 Experiment 2, 3.12 μM
  DNA synthesis (cpm/μg protein): 5.11 ± 0.27 cpm/μg protein
[1]; Table 2 Experiment 2, 6.25 μM
  DNA synthesis (cpm/μg protein): 2.45 ± 0.56 cpm/μg protein
[1]; Table 2 Experiment 2, 12.5 μM
  DNA synthesis (cpm/μg protein): 1.07 ± 0.11 cpm/μg protein
[1]; Table 2 Experiment 2, 25 μM
  DNA synthesis (cpm/μg protein): 0.58 ± 0.05 cpm/μg protein
[1]; Table 2 Experiment 2, 50 μM
  DNA synthesis (cpm/μg protein): 0.44 ± 0.12 cpm/μg protein
[1]; Table 3, 0.1 μM
  DNA synthesis (cpm/μg protein): 60.4 ± 4.1 cpm/μg protein
[1]; Table 3, 0.2 μM
  DNA synthesis (cpm/μg protein): 56.3 ± 3.0 cpm/μg protein
[1]; Table 3, 0.3 μM
  DNA synthesis (cpm/μg protein): 58.8 ± 0.4 cpm/μg protein
[1]; Table 3, 0.4 μM
  DNA synthesis (cpm/μg protein): 54.2 ± 1.2 cpm/μg protein
[1]; Table 3, 0.6 μM
  DNA synthesis (cpm/μg protein): 59.3 ± 5.5 cpm/μg protein
[1]; Table 3, 0.8 μM
  DNA synthesis (cpm/μg protein): 44.4 ± 2.6 cpm/μg protein
[1]; Table 3, 1.0 μM
  DNA synthesis (cpm/μg protein): 37.7 ± 4.0 cpm/μg protein
[1]; Table 3, 2.0 μM
  DNA synthesis (cpm/μg protein): 25.7 ± 2.4 cpm/μg protein
[1]; both experiments, 50 μM
  inhibition of DNA synthesis: inhibited DNA synthesis completely
[1]; concentrations as low as 1.56 μM
  DNA synthesis of keratinocytes: decreased DNA synthesis of keratinocytes significantly
[1]; concentrations lower than 0.8 μm (0.000018 wt. %)
  reducing keratinocyte proliferation: not effective at reducing keratinocyte proliferation
[2]; 10 μM
  viability at 72 h, 10 µM: 94.6%
[2]; 25 μM
  viability at 72 h, 25 µM: 86.8%
[2]; 50 μM
  viability at 72 h, 50 µM: 69.2%
[2]; 100 μM
  viability at 72 h, 100 µM: 1.8%
cyclo-oxygenase
  cyclo-oxygenase inhibition: known cyclo-oxygenase inhibitor
